Experimental data published in paper PMC6410080 (Viruses, 2019).
Read-outs that look alike come from different tables or passages of the source.

Assays:
SFV [1] = assay: microbe, parasite or virus in culture; assay type: cell-based, Semliki Forest virus; settings: for IC50: read-out: IC50 SFV (7 h); for % inhibition (SFV screen): 10 µM
DENV-2 = DENV-2 infection assay / secondary screen (E protein staining); assay type: cell-based, dengue virus serotype 2; settings: for % inhibition (DENV-2 screen): 10 µM
SINV = assay: microbe, parasite or virus in culture; assay type: cell-based, Sindbis virus; settings: read-out: IC50 SINV
DENV-1 = assay: microbe, parasite or virus in culture; assay type: cell-based, dengue virus
ZIKV = assay: microbe, parasite or virus in culture; assay type: cell-based, Zika virus
YF17D = assay: organism not typed; assay type: cell-based, yellow fever 17D
HCV = assay: microbe, parasite or virus in culture; assay type: cell-based, hepatitis C virus
VSV VLP = assay: microbe, parasite or virus in culture; assay type: cell-based, vesicular stomatitis virus; settings: read-out: IC50 VSV
RABV VLP = assay: microbe, parasite or virus in culture; assay type: cell-based, rabies virus; settings: read-out: IC50 RABV
H5N1 VLP = assay: microbe, parasite or virus in culture; assay type: cell-based, influenza H5N1
EBOV VLP = assay: microbe, parasite or virus in culture; assay type: cell-based, Ebola virus
HIV-1 = assay: microbe, parasite or virus in culture; assay type: cell-based, human immunodeficiency virus type 1; settings: read-out: IC50 HIV
HSV-1 = assay: microbe, parasite or virus in culture; assay type: cell-based, herpes simplex virus 1
[2] = system: Renilla luciferase expression (protein synthesis); assay type: cell-based
viruses/VLPs tested = assay type: cell-based
HeLa Kyoto cells [3] = system: HeLa Kyoto cells
Huh7 cells [4] = settings: human
in vitro [5] = settings: human, % viability (SFV screen)
in vitro [6] = settings: human
HeLa Kyoto cells [7] = settings: 10 µM
Huh7 cells [8] = settings: 10 µM
DENV-3 = assay: microbe, parasite or virus in culture; assay type: cell-based, dengue virus; settings: read-out: IC50 DENV-3
VACV = assay: microbe, parasite or virus in culture; assay type: cell-based, vaccinia virus; settings: read-out: IC50 VACV
SFV [9] = assay type: cell-based, Semliki Forest virus
Huh7 cells [10] = assay: MTT assay, Huh7 cells
[11] = Huh7, 24 h, compared to DMSO-treated controls
[12] = Huh7, MOI 1, 24 h, compared to DMSO-treated controls

Which IC50 (SFV [1]; Semliki Forest virus, HeLa Kyoto) does the source give for `CNc1ccc2oc(C[C@H]3O[C@@]4(CC[C@H]3C)O[C@H]([C@H](C)C(=O)c3ccc[nH]3)[C@H](C)C[C@H]4C)nc2c1C(=O)O` [Calcimycin] here?
The IC50 was 0.6 µM.

And the inhibition at 10 µM (SFV [1]; Semliki Forest virus, M-HeLa, 7 h, read-out: % inhibition (SFV screen))?
Its inhibition at 10 µM is 91.4%.

What about the inhibition at 10 µM (DENV-2; Dengue virus, DENV2, Huh-7, 24 h, read-out: % inhibition (DENV-2 screen)) of the same compound?
Its inhibition at 10 µM is 100%.

And the IC50 (DENV-2; Dengue virus, DENV2, Huh-7, 24 h, read-out: IC50 DENV-2 (7 + 17 h))?
Its IC50 is 4.4 µM.

And the IC50 (DENV-2; Dengue virus, DENV2, Huh-7, 24 h, read-out: IC50 DENV-2 (24 h))?
Its IC50 is 0.38 µM.

What about the IC50 (SINV; Sindbis virus, HeLa Kyoto) of the same compound?
Its IC50 is 2.1 µM.

And the IC50 (DENV-1; Dengue virus, DENV1, Huh-7, read-out: IC50 DENV-1)?
Its IC50 is 4.3 µM.

What about the IC50 (ZIKV; Zika virus, Huh-7, read-out: IC50 ZIKV) of the same compound?
Its IC50 is 17.1 µM.

And the IC50 (YF17D; Huh-7, read-out: IC50 YF17D)?
The IC50 was 400 nM.

And the IC50 (HCV; Hepatitis C virus, Huh7.5, read-out: IC50 HCV)?
Its IC50 is 1.45 µM.

What about the IC50 (VSV VLP; Vesicular stomatitis virus, HeLa Kyoto, 24 h) of the same compound?
Its IC50 is 0.1 µM.

What about the IC50 (RABV VLP; Lyssavirus rabies, HeLa Kyoto, 24 h) of the same compound?
Its IC50 is 0.7 µM.

What about the IC50 (H5N1 VLP; Influenza A virus, H5N1, HeLa Kyoto, 48 h, read-out: IC50 H5N1) of the same compound?
Its IC50 is 400 nM.

And the IC50 (EBOV VLP; Zaire ebolavirus, HeLa Kyoto, 48 h, read-out: IC50 EBOV)?
Its IC50 is 500 nM.

What about the IC50 (HIV-1; Human immunodeficiency virus 1, 24 h) of the same compound?
Its IC50 is 2.5 µM.

What about the IC50 (HSV-1; Human alphaherpesvirus 1, Vero, 8 h, read-out: IC50 HSV (Vero)) of the same compound?
The IC50 was under 500 nM.

And the “Decrease of Renilla signal (protein synthesis)” value [2]?
Its value is “more than 50%”.

What about the “Inhibition of protein synthesis at lower concentrations” value [2] of the same compound?
The value was “lose their inhibitory activity on protein synthesis”.

What about the “Viruses Inhibited” value (viruses/VLPs tested) of the same compound?
Its value is “All tested”.

And the “TC50 SFV (7 h)” value (HeLa Kyoto cells [3]; human)?
Its value is 4.1 µM.

And the “TC50 SFV (7h)” value (HeLa Kyoto cells [3]; human)?
The value was 4.1 mM.

What about the “TC50 DENV-2 (7 + 17 h)” value (Huh7 cells [4]) of the same compound?
Its value is over 50 µM.

And the “TC50 DENV-2 (24 h)” value (Huh7 cells [4])?
Its value is 6.7 µM.

What about the viability at 10 µM (in vitro [5]) of the same compound?
Its viability at 10 µM is 34.4%.

And the viability at 10 µM (in vitro [6])?
The viability at 10 µM was 40%.

For `COc1ccc(C[C@@H](C)NC[C@H](O)c2ccc(O)c(NC=O)c2)cc1.COc1ccc(C[C@@H](C)NC[C@H](O)c2ccc(O)c(NC=O)c2)cc1.O=C(O)/C=C/C(=O)O` [Formoterol fumarate], which “% inhibition (SFV screen)” value (SFV [1]) is on record?
The value was 86.74%.

And the “% inhibition (DENV-2 screen)” value (DENV-2)?
The value was -41.42%.

What about the “% viability (SFV screen)” value (HeLa Kyoto cells [7]; HeLa Kyoto, 7 h, compared to DMSO-treated controls, LOPAC and Prestwick samples listed separately) of the same compound?
Its value is 97.47%.

What about the “% viability (DENV-2 screen)” value (Huh7 cells [8]; [11]) of the same compound?
Its value is 102.07%.

Which results are given for `Cl.Cl.Fc1ccc(C(OCCN2CCN(CCCc3ccccc3)CC2)c2ccc(F)cc2)cc1` [GBR 12909 dihydrochloride]?
% inhibition (SFV screen) (SFV [1]): 75.39%; % inhibition (DENV-2 screen) (DENV-2; [12]): 83.87%; % viability (SFV screen) (HeLa Kyoto cells [7]): 90.30%; % viability (DENV-2 screen) (Huh7 cells [8]): 38.91%

With `CCOC(=O)N1CCN(/[N+]([O-])=N/Oc2ccc([N+](=O)[O-])cc2[N+](=O)[O-])CC1` [JS-K] as the compound, how does the “% inhibition (SFV screen)” value (SFV [1]) read?
Its value is 84.89%.

What about the “% inhibition (DENV-2 screen)” value (DENV-2; [12]) of the same compound?
Its value is 84.24%.

And the “% viability (SFV screen)” value (HeLa Kyoto cells [7])?
Its value is 66.74%.

And the “% viability (DENV-2 screen)” value (Huh7 cells [8]; [11])?
The value was 53.82%.

For `Cc1ccc(S(=O)(=O)N[C@@H](Cc2ccccc2)C(=O)CCl)cc1` [N-p-Tosyl-L-PCK, N-p-Tosyl-L-phenylalanine chloromethyl ketone], which “% inhibition (SFV screen)” value (SFV [1]) is on record?
Its value is 82.34%.

And the IC50 (SFV [1])?
Its IC50 is 10.7 µM.

What about the “% inhibition (DENV-2 screen)” value (DENV-2; [12]) of the same compound?
Its value is 60.35%.

What about the IC50 (DENV-2; Huh7, compounds 7 h then media replaced for 17 h, read-out: IC50 DENV-2 (7 + 17 h)) of the same compound?
Its IC50 is 19.6 µM.

And the IC50 (DENV-2; Huh7, compounds for entire 24 h, read-out: IC50 DENV-2 (24 h))?
The IC50 was 7.5 µM.

And the IC50 (SINV)?
Its IC50 is 11.9 µM.

What about the IC50 (DENV-1; read-out: IC50 DENV-1) of the same compound?
Its IC50 is 25.6 µM.

And the IC50 (DENV-3)?
The IC50 was 24.2 µM.

And the IC50 (ZIKV; read-out: IC50 ZIKV)?
The IC50 was 24.3 µM.

And the IC50 (YF17D; read-out: IC50 YF17D)?
The IC50 was 4600 nM.

What about the IC50 (HCV; read-out: IC50 HCV) of the same compound?
Its IC50 is about 13 µM.

And the IC50 (VSV VLP)?
Its IC50 is 11.5 µM.

What about the IC50 (RABV VLP) of the same compound?
Its IC50 is 15 µM.

What about the “IC50 H5N1” value (H5N1 VLP) of the same compound?
Its value is “No inhibition”.

What about the “IC50 EBOV” value (EBOV VLP) of the same compound?
Its value is “No inhibition”.

What about the IC50 (HIV-1) of the same compound?
The IC50 was 12.5 µM.

What about the “IC50 HSV (Vero)” value (HSV-1) of the same compound?
Its value is “No inhibition”.

What about the IC50 (VACV) of the same compound?
The IC50 was 14.4 µM.

What about the “Decrease of Renilla signal (protein synthesis)” value [2] of the same compound?
Its value is “more than 50%”.

And the “Inhibition of protein synthesis at lower concentrations” value [2]?
Its value is “partially inhibits protein synthesis but not virus infection”.

What about the “Activity when added before SFV or 30 and 60 min after internalisation” value (SFV [9]) of the same compound?
Its value is “act exclusively before (or at the stage of) fusion”.

What about the “Time of Addition” value (SFV [9]) of the same compound?
Its value is “Before fusion”.

And the “Viruses Inhibited” value (viruses/VLPs tested)?
Its value is “Unclear pattern”.

And the “TC50 SFV (7 h)” value (HeLa Kyoto cells [3])?
The value was 42.7 µM.

And the “TC50 SFV (7h)” value (HeLa Kyoto cells [3])?
Its value is 42.7 mM.

And the “% viability (SFV screen)” value (HeLa Kyoto cells [7])?
Its value is 95.24%.

What about the “% viability (DENV-2 screen)” value (Huh7 cells [8]) of the same compound?
Its value is 58.91%.

What about the “TC50 DENV-2 (7 + 17 h)” value (Huh7 cells [10]; Huh7, compounds 7 h then compound-free media 17 h) of the same compound?
Its value is 24.2 µM.

What about the “TC50 DENV-2 (24 h)” value (Huh7 cells [10]; Huh7, compounds 24 h) of the same compound?
Its value is 31.7 µM.
